Laboratory results as given in PubChem BioAssay (NCI).
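Cells were grown in 96-well plates and exposed to each compound for 48 hours at five concentrations; endpoints were interpolated linearly between bracketing concentrations, or set to the highest concentration if not reached. TGI: concentration producing complete growth inhibition.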 Where a SMILES comes first, the peptide text is derived from it. [ ]: non-standard residue; d: D form. Ava = NCCCCC(=O)O; Mpa = O=C(O)CCS

Legend:
Experiment in all cases: DTP human tumour cell line panel, 48 h
[1] = tested on: HOP-62 NSCLC
[2] = tested on: MOLT-4 leukemia
[3] = tested on: CCRF-CEM leukemia
[4] = tested on: NCI-H226 lung
[5] = tested on: SNB-75 CNS
[6] = tested on: SK-MEL-28 melanoma
[7] = tested on: LOX IMVI melanoma
[8] = tested on: MDA-MB-435
[9] = tested on: K-562 leukemia
[10] = tested on: OVCAR-5 ovarian

`Cc1[nH]c(=O)nc(N/N=C/c2c3ccccc3c(Cl)c3ccccc23)c1C(=O)Nc1ccc(Cl)cc1` gave a TGI [1] greater than 100 µM, a TGI [2] greater than 100 µM and a TGI [3] of 89.3 µM. It also gave a TGI [4] greater than 100 µM, a TGI [5] greater than 100 µM and a TGI [6] greater than 100 µM. It also gave a TGI [7] greater than 100 µM, a TGI [8] greater than 100 µM and a TGI [9] greater than 100 µM. For the same molecule, the TGI [10] was greater than 100 µM.
`CC1=C(C)C(=O)OC(C(C)(O)C2(O)CC3OC34C3CC(O)C56OC5C=CC(=O)C6(C)C3CCC42C)C1` (stereo not given) showed a TGI [1] of 35.4 µM, a TGI [2] of 4.49 µM and a TGI [3] greater than 22.2 µM. It also gave a TGI [4] of 12.9 µM, a TGI [5] of 20.3 µM and a TGI [6] of 4.24 µM. The TGI [7] was 5.38 µM, the TGI [8] was 4.62 µM and the TGI [9] was greater than 100 µM. The TGI [10] was 10.4 µM.
Work on `O=C(Nc1ccccc1C(=O)NCc1ccccc1)/C(=C/c1ccccc1O)NC(=O)c1ccccc1` yielded a TGI [1] greater than 100 µM, a TGI [2] greater than 100 µM and a TGI [3] greater than 100 µM. It also gave a TGI [4] greater than 100 µM, a TGI [5] of 63.3 µM and a TGI [6] greater than 100 µM. The TGI [7] was greater than 100 µM, the TGI [8] was greater than 100 µM and the TGI [9] was greater than 100 µM. The TGI [10] was greater than 100 µM.
With `NCCCn1c(Cl)nc2ccccc21` the TGI [1] was greater than 100 µM, the TGI [2] was greater than 100 µM and the TGI [3] was greater than 100 µM. The TGI [4] was greater than 100 µM, the TGI [5] was greater than 100 µM and the TGI [6] was greater than 100 µM. For the same molecule, the TGI [7] was greater than 100 µM, the TGI [8] was greater than 100 µM and the TGI [9] was greater than 100 µM. It also gave a TGI [10] greater than 100 µM.
`COc1cc(C[C@@]2(C)[C@@H]3CCC[C@H](CO)[C@@]3(C)CC[C@@H]2C)c(Cl)c(OC)c1` showed a TGI [1] of 31.6 µM, a TGI [2] of 44.6 µM and a TGI [3] greater than 100 µM. It also gave a TGI [4] of 32.5 µM, a TGI [5] of 31.9 µM and a TGI [6] of 60.9 µM. It also gave a TGI [7] of 32.9 µM, a TGI [8] of 27.1 µM and a TGI [9] of 53 µM. It also gave a TGI [10] of 32.9 µM.
For `CC(NC(=O)CCS)C(=O)NC(C)C(=O)NC(Cc1c[nH]c2ccccc12)C(=O)NC(Cc1c[nH]cn1)C(=O)NC(CO)C(=O)NC(Cc1c[nH]c2ccccc12)C(=O)NCCCCC(=O)NC(C)C(=O)NC(CCC(N)=O)C(=O)NC(CCCCN)C(=O)NC(C)C(=O)NC(CCCNC(=N)N)C(=O)NC(CCCCN)C(N)=O` (stereo not given) ([Mpa]AAWHSW[Ava]AQKARK-NH2; configuration not given here), the TGI [1] was greater than 100 µM, the TGI [2] was greater than 100 µM and the TGI [3] was greater than 100 µM. The TGI [4] was greater than 100 µM, the TGI [5] was greater than 100 µM and the TGI [6] was greater than 100 µM. It also gave a TGI [7] greater than 100 µM, a TGI [8] greater than 100 µM and a TGI [9] of 99.4 µM. The TGI [10] was greater than 100 µM.
With `O=C(NC(=S)Nc1ccc(Br)cc1)c1ccc2c(c1)Sc1ccccc1O2` the TGI [1] was greater than 100 µM, the TGI [2] was greater than 100 µM and the TGI [3] was greater than 100 µM. It also gave a TGI [4] greater than 100 µM, a TGI [5] of 19.3 µM and a TGI [6] greater than 100 µM. It also gave a TGI [7] greater than 100 µM, a TGI [8] greater than 100 µM and a TGI [9] greater than 100 µM. It also gave a TGI [10] greater than 100 µM.
`CC1=NNC(=O)C1C1(C(=O)O)CC(c2c[nH]c3ccccc23)=NC(=S)N1` (stereo not given) gave a TGI [1] greater than 100 µM, a TGI [2] of 52.7 µM and a TGI [3] of 64.1 µM. The TGI [4] was 85.8 µM, the TGI [5] was 62.9 µM and the TGI [6] was greater than 100 µM. It also gave a TGI [7] of 39.6 µM, a TGI [8] greater than 100 µM and a TGI [9] of 73.9 µM. For the same molecule, the TGI [10] was greater than 100 µM.
`CCO/N=C\c1ccc2oc(-c3ccccc3)cc(=O)c2c1` gave a TGI [1] of 28.7 µM, a TGI [2] of 19.9 µM and a TGI [3] of 26 µM. For the same molecule, the TGI [4] was 7.01 µM, the TGI [5] was 13.8 µM and the TGI [6] was greater than 100 µM. It also gave a TGI [7] greater than 48.7 µM, a TGI [8] of 2.49 µM and a TGI [9] greater than 100 µM. The TGI [10] was 40 µM.
`CS(=O)(=O)OCCN(CCOS(C)(=O)=O)c1ccc(C=Nc2ccc(-c3csc(Cc4ccccc4)n3)cc2)c(Cl)c1` gave a TGI [1] greater than 55.5 µM, a TGI [2] greater than 87.9 µM and a TGI [3] greater than 61.2 µM. For the same molecule, the TGI [4] was 1.79 µM, the TGI [5] was greater than 68.1 µM and the TGI [6] was greater than 100 µM. For the same molecule, the TGI [7] was greater than 57.3 µM, the TGI [8] was greater than 78.2 µM and the TGI [9] was 76.9 µM. The TGI [10] was 99.1 µM.
With `O=C(CC(C(=O)c1ccsc1)c1cccs1)c1ccccc1` (stereo not given) the TGI [1] was greater than 100 µM, the TGI [2] was greater than 100 µM and the TGI [3] was greater than 100 µM. The TGI [4] was greater than 100 µM, the TGI [5] was greater than 100 µM and the TGI [6] was greater than 100 µM. It also gave a TGI [7] greater than 100 µM, a TGI [8] greater than 100 µM and a TGI [9] greater than 100 µM. The TGI [10] was greater than 100 µM.
